Reference: patent US6737383B1, “Herbicidal oxadiazolidines” (priority 1999, dated 2004)

Tests used:
[1] = system: surinam grass; experiment: Test B pre/postemergence surinam grass; format: in vivo, Brachiaria decumbens; details: Postemergence
In short: (§1)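 Test chemicals in a non-phytotoxic solvent mixture with surfactant were sprayed preemergence onto planted seeds and postemergence onto plants 2 to 18 cm tall (1- to 4-leaf stage). After twelve to sixteen days in a greenhouse, injury was visually rated against untreated controls from 0 (no effect) to 10 (complete control).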

[2] = system: pigweed; experiment: Test B pre/postemergence pigweed; format: in vivo, Amaranthus retroflexus
In short: as §1

[3] = system: purple nutsedge; experiment: Test B pre/postemergence purple nutsedge; format: in vivo, Cyperus rotundus
In short: as §1

[4] = system: giant foxtail; experiment: Test B pre/postemergence giant foxtail; format: in vivo, Setaria faberii
In short: as §1

[5] = system: crabgrass; experiment: Test B pre/postemergence crabgrass; format: in vivo, Digitaria sanguinalis
In short: as §1

[6] = system: cocklebur; experiment: Test B pre/postemergence cocklebur; format: in vivo, Xanthium strumarium
In short: as §1

[7] = system: wild oat; experiment: Test B pre/postemergence wild oat; format: in vivo, Avena fatua
In short: as §1

[8] = system: velvetleaf; experiment: Test B pre/postemergence velvetleaf; format: in vivo, Abutilon theophrasti
In short: as §1

[9] = system: wheat; experiment: Test B pre/postemergence wheat; format: in vivo, Triticum aestivum
In short: as §1

[10] = system: sugar beet; experiment: Test B pre/postemergence sugar beet; format: in vivo, Beta vulgaris
In short: as §1

[11] = system: corn; experiment: Test B pre/postemergence corn; format: in vivo, Zea mays
In short: as §1

[12] = system: bedstraw; experiment: Test B pre/postemergence bedstraw; format: in vivo, Galium aparine
In short: as §1

[13] = system: rape; experiment: Test B pre/postemergence rape; format: in vivo, Brassica napus
In short: as §1

[14] = system: soybean; experiment: Test B pre/postemergence soybean; format: in vivo, Glycine max
In short: as §1

[15] = system: blackgrass; experiment: Test B pre/postemergence blackgrass; format: in vivo, Alopecurus myosuroides
In short: as §1

[16] = system: morningglory; experiment: Test B pre/postemergence morningglory; format: in vivo, Ipomoea hederacea
In short: as §1

[17] = Postemergence, Rate 125 g/ha, scale of 0 to 10 where 0 is no effect and 10 is complete control
[18] = Postemergence, Rate 500 g/ha, scale 0 (no effect) to 10 (complete control)
[19] = Postemergence, Rate 1000 g/ha, scale 0 to 10 (0 no effect, 10 complete control)
[20] = Rate 125 g/ha, Preemergence, scale 0 to 10 (0 no effect, 10 complete control)
[21] = Rate 250 g/ha, Postemergence, scale 0 to 10, 0 is no effect, 10 is complete control
[22] = Rate 500 g/ha, Preemergence, scale 0 to 10 (0 no effect, 10 complete control)
[23] = Rate 1000 g/ha, Preemergence, scale 0 to 10 (0 no effect, 10 complete control)
[24] = Preemergence, Rate 250 g/ha, scale 0 (no effect) to 10 (complete control)

COP(=O)(CCn1c(=O)on(C(=O)N(c2ccc(F)cc2F)C(C)C)c1=O)OC [Compound 777]
B. signalgrass plant response rating ([1]; Rate 125 g/ha, scale of 0 to 10 where 0 is no effect and 10 is complete control): 2 | B. signalgrass plant response rating ([1]; Rate 1000 g/ha, scale 0 to 10 (0 no effect, 10 complete control)): 8 | B. signalgrass plant response rating ([1]; Rate 250 g/ha, scale 0 to 10, 0 is no effect, 10 is complete control): 2 | B. signalgrass plant response rating ([1]; Rate 500 g/ha, scale 0 to 10, 0 is no effect, 10 is complete control): 3 | Redroot pigweed plant response rating [2, 17]: 2 | Redroot pigweed plant response rating [2, 18]: 4 | Redroot pigweed plant response rating [2, 19]: 8 | Redroot pigweed plant response rating [2, 20]: 2 | Redroot pigweed plant response rating [2, 21]: 4 | Redroot pigweed plant response rating [2, 22]: 2 | Plant response rating, Redroot pigweed [2, 23]: 9 | Nutsedge plant response rating [3, 18]: 3 | Nutsedge plant response rating [3, 19]: 3 | Nutsedge plant response rating [3, 20]: 0 | Nutsedge plant response rating [3, 21]: 0 | Plant response rating, Nutsedge [3, 23]: 1 | Giant foxtail plant response rating [4, 17]: 8 | Giant foxtail plant response rating [4, 18]: 9 | Giant foxtail plant response rating [4, 19]: 9 | Giant foxtail plant response rating [4, 24]: 10 | Giant foxtail plant response rating [4, 20]: 10 | Giant foxtail plant response rating [4, 21]: 8 | Giant foxtail plant response rating [4, 22]: 10 | Plant response rating, Giant foxtail [4, 23]: 10 | Crabgrass plant response rating [5, 17]: 4 | Crabgrass plant response rating [5, 18]: 9 | Crabgrass plant response rating [5, 24]: 10 | Crabgrass plant response rating [5, 20]: 10 | Crabgrass plant response rating [5, 21]: 7 | Crabgrass plant response rating [5, 22]: 10 | Plant response rating, Crabgrass [5, 23]: 10 | Cocklebur plant response rating [6, 17]: 0 | Cocklebur plant response rating [6, 18]: 0 | Cocklebur plant response rating [6, 19]: 0 | Cocklebur plant response rating [6, 24]: 0 | Cocklebur plant response rating [6, 20]: 0 | Cocklebur plant response rating [6, 21]: 0 | Cocklebur plant response rating [6, 22]: 0 | Wild oats plant response rating [7, 18]: 3 | Wild oats plant response rating [7, 20]: 3 | Wild oats plant response rating [7, 21]: 2 | Wild oats plant response rating [7, 22]: 9 | Plant response rating, Wild oats [7, 23]: 9 | Velvetleaf plant response rating [8, 18]: 5 | Velvetleaf plant response rating [8, 20]: 0 | Velvetleaf plant response rating [8, 21]: 3 | Velvetleaf plant response rating [8, 22]: 0 | Plant response rating, Velvetleaf [8, 23]: 3 | Wheat plant response rating [9, 18]: 3 | Wheat plant response rating [9, 20]: 0 | Wheat plant response rating [9, 21]: 2 | Wheat plant response rating [9, 22]: 9 | Plant response rating, Wheat [9, 23]: 9 | Sugarbeets plant response rating [10, 18]: 5 | Sugarbeets plant response rating [10, 20]: 0 | Sugarbeets plant response rating [10, 21]: 3 | Sugarbeets plant response rating [10, 22]: 3 | Plant response rating, Sugarbeets [10, 23]: 3 | Corn plant response rating [11, 17]: 0 | Corn plant response rating [11, 18]: 0 | Corn plant response rating [11, 19]: 0 | Corn plant response rating [11, 24]: 0 | Corn plant response rating [11, 20]: 0 | Corn plant response rating [11, 21]: 0 | Corn plant response rating [11, 22]: 0 | Plant response rating, Corn [11, 23]: 0 | Bedstraw plant response rating [12, 17]: 0 | Bedstraw plant response rating [12, 18]: 3 | Bedstraw plant response rating [12, 19]: 6 | Bedstraw plant response rating [12, 20]: 0 | Bedstraw plant response rating [12, 21]: 2 | Bedstraw plant response rating [12, 22]: 0 | Plant response rating, Bedstraw [12, 23]: 3 | Rape plant response rating [13, 17]: 0 | Rape plant response rating [13, 18]: 0 | Rape plant response rating [13, 19]: 0 | Rape plant response rating [13, 20]: 0 | Rape plant response rating [13, 21]: 0 | Rape plant response rating [13, 22]: 2 | Plant response rating, Rape [13, 23]: 7 | Soybean plant response rating [14, 18]: 6 | Soybean plant response rating [14, 20]: 0 | Soybean plant response rating [14, 21]: 3 | Soybean plant response rating [14, 22]: 0 | Plant response rating, Soybean [14, 23]: 0 | Blackgrass plant response rating [15, 17]: 0 | Blackgrass plant response rating [15, 18]: 4 | Blackgrass plant response rating [15, 19]: 4 | Blackgrass plant response rating [15, 24]: 10 | Blackgrass plant response rating [15, 20]: 2 | Blackgrass plant response rating [15, 21]: 2 | Blackgrass plant response rating [15, 22]: 10 | Plant response rating, Blackgrass [15, 23]: 10 | Morningglory plant response rating [16, 17]: 8 | Morningglory plant response rating [16, 18]: 8 | Morningglory plant response rating [16, 19]: 8 | Morningglory plant response rating [16, 20]: 1 | Morningglory plant response rating [16, 21]: 8 | Morningglory plant response rating [16, 22]: 5 | Plant response rating, Morningglory [16, 23]: 7
